Source: patent publication US9212146B2, “Substituted pyridazinones for the treatment of tumors” (SHANGHAI INSTITUTE OF MATERIA MEDICA, CHINESE ACADEMY OF …, priority 2008, dated 2015)

Tests used:
[1] = system: human hepatoma cell line Bel-7402; assay: SRB proliferation assay, Bel-7402; assay type: cell-based; settings: Homo sapiens, Bel-7402, 72 h, BEL-7402 cultivated in vitro, given as bounds, read-out: The Inhibition Activities for Human Liver Cancer Cells BEL-7402 (IC50)
Experimental: (§1) Protocol: the antineoplasmic activities in vitro of the compounds were assayed by a Sulforhodamine B (SRB) protocol. Tumor cells were cultivated at 37 under 5% CO2 in a RPMI 1640 medium or a DMEM medium (Gibco) containing 10% fetal bovine serum. Tumor cells were inoculated on a 96-well plate with a concentration of 0.4-1.0×10^4 cells per well according to the cell types. 24 hours later, the target compounds diluted 10 times were added, each compound having at least 5 concentrations. After treated by the compounds for 72 hours, the culture media were discarded, and the cells were fixed by 10% cold trichloroacetic acid, and then stained by Sulforhodamine B (SRB) solution. The uncombined SRB was washed off, and the SRB combined with protein was dissolved with Tris. OD values were recorded at 515 nm on an ELISA Reader, and the cell growth inhibition rate was calculated according to following equation: Inhibition rate=(ODcontrol−ODexperimental)/ODcontrol×100%
IC50 (50% inhibitory concentration) was calculated by using Logit method based on the inhibition rates at various concentration, and the results are shown in tables 1 and 2.
The following cell lines were used: human hepatocarcinoma cell line […]; ovarian cancer cell line SK-OV-3; human breast cancer cell line MDA-MB-231; human renal carcinoma cell line A498; colon adenocarcinoma cell line HT-29; non-small cell lung cancer cell line NCI-H460; lung adenocarcinoma cell line A549; human colon cancer cell line SW-620; human hepatoma cell line Bel-7402; human breast carcinoma cell line SK-BR-3; and human umbilical vein endothelial cells (HUVEC).

[2] = system: human liver cancer cells Bel-7402 transplanted tumor; assay type: in vivo; settings: for Quantity of Animals Whose Tumors Vanished / Inhibition Rate (%) / Tumor Volume (mm^3): 100 mg/kg, PO, QDx11; for Quantity of Animals Whose Tumors Vanished: 5 animals per group; for Inhibition Rate (%) / Tumor Volume (mm^3): Bel-7402 on nude mice; for tumors vanished (animals/group): at the 11th day; for tumors vanished (animals/group) / toxicity / survivability of mice: intragastrically once a day for 11 days; for toxicity / survivability of mice: nude mice; for recrudescence of tumors: at the end of the experiment (17th day)
Excerpt: Name and lot number: YHHU-744, a white powder, lot No.: No. c001471-106; YHHU-755, a white powder, lot No.: No. c001471-102; YHHU-756, a white powder, lot No.: No. c00147-106; YHHU-759, a white powder, lot No.: No. c001471-102; YHHU-776, a white powder, lot No.: No. c001471-107. Sorafenib was used as a positive control.
Formulation: YHHU-744, YHHU-755, YHHU-756, YHHU-759, YHHU-776 and the positive control were each diluted with 0.1% Tween-80 and distilled water to a desired concentration.
BALB/cA nude mice, 6-7 weeks old, ♀, were purchased from Shanghai SLAC Laboratory Animal Co. LTD. Certificate No.: SCXK (Shanghai) 2007-0005. Habitat: SPF level.
Human liver cancer cells Bel-7402 were inoculated on nude mice subcutaneously. After the tumor grew up to 300-450 mm^3, animals were grouped randomly (d0). The tumor volume was measured 2-3 times each week and the weights of mice were recorded. The tumor volume was calculated according to as the following equation. V=½×a×b^2 wherein, a and b are length and width, respectively. […]

HL-7702 liver cell = assay: SRB assay Example 17, HL-7702; assay type: cell-based; settings: Homo sapiens, L02, 72 h
Experimental: as §1, with “diluted 3” for “diluted 10”, “least 9” for “least 5”
(§2) IC50 (50% inhibitory concentration) was calculated by using Logit method based on the inhibition rates at various concentration, and the results are shown in table 4.
(§3) Proliferation of turner cells was assayed by SRB protocol, drug action 72 h.

HepG2 liver cancer cells = assay: SRB assay Example 17, HepG2; assay type: cell-based; settings: Homo sapiens, 72 h
Experimental: as §1, with “diluted 3” for “diluted 10”, “least 9” for “least 5”
as §2, §3

[3] = system: HeLa cervical carcinoma cells; assay: SRB assay Example 17, HeLa; assay type: cell-based; settings: Homo sapiens, 72 h
Experimental: as §1, with “diluted 3” for “diluted 10”, “least 9” for “least 5”
as §2, §3

Hep3B liver cancer cells = assay: SRB assay Example 17, Hep3B; assay type: cell-based; settings: Homo sapiens, 72 h
Experimental: as §1, with “diluted 3” for “diluted 10”, “least 9” for “least 5”
as §2, §3

[4] = system: CNE nasopharyngeal carcinoma cells; assay: SRB assay Example 17, CNE; assay type: cell-based; settings: Homo sapiens, 72 h
Experimental: as §1, with “diluted 3” for “diluted 10”, “least 9” for “least 5”
as §2, §3

[5] = system: SMMC-7721 liver cancer cells; assay: SRB assay Example 17, SMMC-7721; assay type: cell-based; settings: Homo sapiens, 72 h
Experimental: as §1, with “diluted 3” for “diluted 10”, “least 9” for “least 5”
as §2, §3

[6] = system: QSG-7701 liver cancer cells; assay: SRB assay Example 17, QSG-7701; assay type: cell-based; settings: Homo sapiens, QSG7701, 72 h
Experimental: as §1, with “diluted 3” for “diluted 10”, “least 9” for “least 5”
as §2, §3

[7] = system: Bel-7402 liver cancer cells; assay: SRB assay Example 17, Bel-7402; assay type: cell-based; settings: Homo sapiens, drug action 72 h
Experimental: as §1, with “diluted 3” for “diluted 10”, “least 9” for “least 5”
as §2, §3

H460 lung cancer cells = assay: SRB assay Example 17, H460; assay type: cell-based; settings: Homo sapiens, NCI-H460, 72 h
Experimental: as §1, with “diluted 3” for “diluted 10”, “least 9” for “least 5”
as §2, §3

[8] = system: HCCC-9810 liver cancer cells; assay: SRB assay Example 17, HCCC-9810; assay type: cell-based; settings: Homo sapiens, HCCC9810, 72 h
Experimental: as §1, with “diluted 3” for “diluted 10”, “least 9” for “least 5”
as §2, §3

Chang liver liver cell = assay: SRB assay Example 17, Chang liver; assay type: cell-based; settings: Homo sapiens, 72 h
Experimental: as §1, with “diluted 3” for “diluted 10”, “least 9” for “least 5”
as §2, §3

HUH-7 liver cancer cells = assay: SRB assay Example 17, HUH-7; assay type: cell-based; settings: Homo sapiens, 72 h
Experimental: as §1, with “diluted 3” for “diluted 10”, “least 9” for “least 5”
as §2, §3

[9] = system: HUVEC normal human umbilical vein endothelial cells; assay: SRB assay Example 17, HUVEC (20% FBS); assay type: cell-based; settings: 72 h
Experimental: as §1, with “diluted 3” for “diluted 10”, “least 9” for “least 5”
as §2, §3

[10] = system: MCF-7 breast carcinoma cells; assay: SRB assay Example 17, MCF-7; assay type: cell-based; settings: Homo sapiens, MCF7, 72 h
Experimental: as §1, with “diluted 3” for “diluted 10”, “least 9” for “least 5”
as §2, §3

3AO ovarian cancer cells = assay: SRB assay Example 17, 3AO; assay type: cell-based; settings: Homo sapiens, 72 h
Experimental: as §1, with “diluted 3” for “diluted 10”, “least 9” for “least 5”
as §2, §3

[11] = system: Bel-7404 liver cancer cells; assay: SRB assay Example 17, Bel-7404; assay type: cell-based; settings: Homo sapiens, 72 h
Experimental: as §1, with “diluted 3” for “diluted 10”, “least 9” for “least 5”
as §2, §3

[12] = system: A2780 ovarian cancer cells; assay: SRB assay Example 17, A2780; assay type: cell-based; settings: Homo sapiens, 72 h
Experimental: as §1, with “diluted 3” for “diluted 10”, “least 9” for “least 5”
as §2, §3

A549 lung cancer cells = assay: SRB assay Example 17, A549; assay type: cell-based; settings: Homo sapiens, 72 h
Experimental: as §1, with “diluted 3” for “diluted 10”, “least 9” for “least 5”
as §2, §3

[13] = system: SK-BR-3 breast carcinoma cells; assay: SRB assay Example 17, SK-BR-3; assay type: cell-based; settings: Homo sapiens, 72 h
Experimental: as §1, with “diluted 3” for “diluted 10”, “least 9” for “least 5”
as §2, §3

[14] = system: human liver cancer cells SMMC-7721 transplanted tumor; assay: SMMC-7721 transplanted tumor on nude mice; assay type: in vivo; settings: intragastrically once a day for 10 days
Experimental: Experimental procedure: BALB/cA nude mice, 6-7 weeks old, ♀, were purchased from Shanghai SLAC Laboratory Animal Co. LTD. Certificate No.: SCXK (Shanghai) 2007-0005. Habitat: SPF level. The compounds were diluted with 0.5% CMC containing 0.1% Tween-80 to a desired concentration. Human liver cancer cells SMMC-7721 were inoculated on nude mice subcutaneously. After the tumor grew up to 100-200 mm^3, animals were grouped randomly (d0). Mice were consecutively administered with compounds intragastrically once a day for 10 days. The tumor volume was measured 2-3 times each week and the weights of mice were recorded. The tumor volume (V) was calculated according to the following equation: V=½×a×b^2, wherein, a and b are length and width, respectively.

[15] = system: SK-HEP-1 liver cancer cells; assay: SRB assay Example 17, SK-HEP-1; assay type: cell-based; settings: Homo sapiens, SK-HEP1, 72 h
Experimental: as §1, with “diluted 3” for “diluted 10”, “least 9” for “least 5”
as §2, §3

[16] = system: QGY-7703 liver cancer cells; assay: SRB assay Example 17, QGY-7703; assay type: cell-based; settings: Homo sapiens, 72 h
Experimental: as §1, with “diluted 3” for “diluted 10”, “least 9” for “least 5”
as §2, §3

[17] = system: QGY-7701 liver cancer cells; assay: SRB assay Example 17, QGY-7701; assay type: cell-based; settings: Homo sapiens, QGY7701, 72 h
Experimental: as §1, with “diluted 3” for “diluted 10”, “least 9” for “least 5”
as §2, §3

With `CCNc1ccc(-c2ccc(=O)[nH]n2)cc1C(F)(F)F` [YHHU-744] the IC50 [1] was less than 10 nM, the “Quantity of Animals Whose Tumors Vanished” value (“Quantity” below) [2] was 4 and the “Inhibition Rate (%)” value [2] was 98%. The “Tumor Volume (mm^3)” value [2] was 343.7 mm^3, the “tumors vanished (animals/group)” value [2] was 4/5 and the “toxicity / survivability of mice” value [2] was “no significant toxicity was observed”.
With `O=c1ccc(-c2ccc(N3CCCCC3)c(C(F)(F)F)c2)n[nH]1` [YHHU-755] the IC50 [1] was less than 10 nM, the “Quantity” value [2] was 5 and the “Inhibition Rate (%)” value [2] was 100%. The “Tumor Volume (mm^3)” value [2] was 350.4 mm^3, the “tumors vanished (animals/group)” value [2] was 5/5 and the recrudescence of tumors [2] was “no recrudescence was observed”. The “toxicity / survivability of mice” value [2] was “no significant toxicity was observed”.
`CN1CCN(c2ccc(-c3ccc(=O)[nH]n3)cc2C(F)(F)F)CC1` [YHHU-756] was tested, and the IC50 (HL-7702 liver cell) was 30 nM, the IC50 (HepG2 liver cancer cells) was greater than 10 µM and the IC50 [3] was 20 nM. The IC50 [1] was less than 10 nM, the IC50 (Hep3B liver cancer cells) was greater than 10 µM and the IC50 [4] was 10 nM. The IC50 [5] was 10 nM, the IC50 [6] was 20 nM and the IC50 [7] was 20 nM. For the same compound, the IC50 (H460 lung cancer cells) was 12.9 µM, the IC50 [8] was greater than 10 µM and the IC50 (Chang liver liver cell) was 20 nM. For the same compound, the IC50 (HUH-7 liver cancer cells) was greater than 10 µM, the IC50 [9] was 50 nM and the IC50 [10] was 12.1 µM. For the same compound, the IC50 (3AO ovarian cancer cells) was 20 nM, the IC50 [11] was 410 nM and the IC50 [12] was 30 nM. The IC50 (A549 lung cancer cells) was 13.2 µM, the IC50 [13] was 7.1 µM and the “survivability / weight loss of mice bearing cancer” value [14] was “no symptoms such as weight loss was observed”. For the same compound, the “growth of SMMC-7721 transplanted tumor” value ([14]; subcutaneous tumor on nude mice) was “caused part of the tumors vanished”, the IC50 [15] was greater than 10 µM and the “Quantity” value [2] was 5. For the same compound, the “Inhibition Rate (%)” value [2] was 100%, the “Tumor Volume (mm^3)” value [2] was 294.6 mm^3 and the “tumors vanished (animals/group)” value [2] was 5/5. For the same compound, the recrudescence of tumors [2] was “no recrudescence was observed”, the “toxicity / survivability of mice” value [2] was “no significant toxicity was observed” and the IC50 [16] was 20 nM. The IC50 [17] was 20 nM.
